Patent publication US20250171430A1, “PYRAZOLYL COMPOUNDS AS KV7 CHANNEL ACTIVATORS” (Biohaven Therapeutics Ltd., priority 2022, published 2025)

Molecular target: T1, Kv7.2/7.3 (Homo sapiens, UniProt O43525+O43526)
T1 construct: Kv7.2 tetracycline-induced, Kv7.3 constitutive
Assay: Kv7.2/7.3 Activation Assay (Thallium Flux Assay)
Format: cell-based
Conditions: hKV7.2/7.3 cell line; test compound at single concentration of 10 μM; fluorescence at 90 sec normalized to positive control (retigabine, 30 μM)
How it was run: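 Human Kv7.2/7.3 cells with Kv7.2 induced overnight by 10 ng/mL tetracycline were loaded with FluxOR II Green for 1 h at 37 °C. Compounds were tested at 10 μM in 0.1% DMSO/extracellular solution, pH 7.4. Thallium/potassium stimulus was added after a 15 s baseline, and 90 s fluorescence (ex 475/em 530 nm) was normalized to 30 μM retigabine.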

Kv7.2/7.3 Activity | SMILES
+ (“+” Moderate Activity 0.15-0.7) | Cn1nc(NC(=O)CC2(O)CCCC2)c(C2CCC2)c1CC1CC1 [Compound 81, N-(4-cyclobutyl-5-(cyclopropylmethyl)-1-methyl-1H-pyrazol-3-yl)-2-(1-hydroxycyclopentyl)acetamide]
++ (“++” High Activity ≥ 0.7) | C[C@H](C(=O)Nc1nn(C)c(-c2ccc(OC(F)(F)F)cc2)c1C1CCC1)C1CC(F)(F)C1 [Compound 177, (S)-N-(4-cyclobutyl-1-methyl-5-(4-(trifluoromethoxy)phenyl)-1H-pyrazol-3-yl)-2-(3,3-difluorocyclobutyl)propanamide]
+ (“+” Moderate Activity 0.15-0.7) | Cn1nc(NC(=O)NC2CC(F)(F)C2)c(C2CCC2)c1-c1ccc(F)cc1 [Compound 212, 1-(4-cyclobutyl-5-(4-fluorophenyl)-1-methyl-1H-pyrazol-3-yl)-3-(3,3-difluorocyclobutyl)urea]
++ (“++” High Activity ≥ 0.7) | Cn1nc(NC(=O)C2(C)CC(F)(F)C2)c(C2CCC2)c1-c1ccc(F)cc1 [Compound 199, N-(4-cyclobutyl-5-(4-fluorophenyl)-1-methyl-1H-pyrazol-3-yl)-3,3-difluoro-1-methylcyclobutane-1-carboxamide]
− (“−” No Activity < 0.15) | Cn1nc(NC(=O)CC2COC2)c(C2CCC2)c1-c1ccc(OC(F)(F)F)cc1 [Compound 84, N-(4-cyclobutyl-1-methyl-5-(4-(trifluoromethoxy)phenyl)-1H-pyrazol-3-yl)-2-(oxetan-3-yl)acetamide]
− (“−” No Activity < 0.15) | Cn1nc(NC(=O)CC2COC2)c(C2CCC2)c1-c1ccc(F)cc1 [Compound 85, N-(4-cyclobutyl-5-(4-fluorophenyl)-1-methyl-1H-pyrazol-3-yl)-2-(oxetan-3-yl)acetamide]
+ (“+” Moderate Activity 0.15-0.7) | Cn1nc(NC(=O)C2(c3ccccc3)CC2)c(C2CCC2)c1-c1ccc(F)cc1 [Compound 103, N-(4-cyclobutyl-5-(4-fluorophenyl)-1-methyl-1H-pyrazol-3-yl)-1-phenylcyclopropane-1-carboxamide]
++ (“++” High Activity ≥ 0.7) | Cn1nc(NC(=O)CC2(C(F)(F)F)CCC2)c(C2CCC2)c1-c1ccc(OC(F)(F)F)cc1 [Compound 82, N-(4-cyclobutyl-1-methyl-5-(4-(trifluoromethoxy)phenyl)-1H-pyrazol-3-yl)-2-(1-(trifluoromethyl)cyclobutyl)acetamide]
++ (“++” High Activity ≥ 0.7) | Cn1nc(NC(=O)[C@H]2C[C@]2(C)C(F)F)c(C2CCC2)c1-c1ccc(F)cc1 [Compound 111, (1S,2S)-N-(4-cyclobutyl-5-(4-fluorophenyl)-1-methyl-1H-pyrazol-3-yl)-2-(difluoromethyl)-2-methylcyclopropane-1-carboxamide]
+ (“+” Moderate Activity 0.15-0.7) | Cn1nc(NC(=O)C2(C(C)(F)F)CC2)c(C2CCC2)c1-c1ccccc1F [Compound 171, N-(4-cyclobutyl-5-(2-fluorophenyl)-1-methyl-1H-pyrazol-3-yl)-1-(1,1-difluoroethyl)cyclopropane-1-carboxamide]
++ (“++” High Activity ≥ 0.7) | Cn1nc(NC(=O)[C@@H]2CC2(F)F)c(C2CCC2)c1C1CC(C)(C)C1 [Compound 147, (S)-N-(4-cyclobutyl-5-(3,3-dimethylcyclobutyl)-1-methyl-1H-pyrazol-3-yl)-2,2-difluorocyclopropane-1-carboxamide]
++ (“++” High Activity ≥ 0.7) | CC(C)c1c(NC(=O)CC(C)(C)C)nn(C)c1-c1ccc(OC(F)(F)F)cc1 [Compound 23, N-(4-isopropyl-1-methyl-5-(4-(trifluoromethoxy)phenyl)-1H-pyrazol-3-yl)-3,3-dimethylbutanamide]
++ (“++” High Activity ≥ 0.7) | Cn1nc(NC(=O)C[C@@H]2CC(F)(F)C2(F)F)c(C2CCC2)c1C(=O)c1ccccc1 [Compound 44, (R)-N-(5-benzoyl-4-cyclobutyl-1-methyl-1H-pyrazol-3-yl)-2-(2,2,3,3-tetrafluorocyclobutyl)acetamide]
++ (“++” High Activity ≥ 0.7) | Cn1nc(NC(=O)C2(C3CC3)CC2)c(C2CCC2)c1-c1ccc(F)cc1 [Compound 137, N-(4-cyclobutyl-5-(4-fluorophenyl)-1-methyl-1H-pyrazol-3-yl)-[1,1'-bi(cyclopropane)]-1-carboxamide]
++ (“++” High Activity ≥ 0.7) | Cn1nc(NC(=O)OC2CC(F)(F)C2)c(C2CCC2)c1-c1cc(F)c(F)c(F)c1 [Compound 287, 3,3-difluorocyclobutyl (4-cyclobutyl-1-methyl-5-(3,4,5-trifluorophenyl)-1H-pyrazol-3-yl)carbamate]
++ (“++” High Activity ≥ 0.7) | Cn1nc(NC(=O)C[C@@H]2CC(F)(F)C2(F)F)c(C2CCC2)c1C1CCC(F)(F)CC1 [Compound 273, (R)-N-(4-cyclobutyl-5-(4,4-difluorocyclohexyl)-1-methyl-1H-pyrazol-3-yl)-2-(2,2,3,3-tetrafluorocyclobutyl)acetamide]
++ (“++” High Activity ≥ 0.7) | Cn1nc(NC(=O)C[C@@H]2CC(F)(F)C2(F)F)c(C2(C)CCC2)c1-c1ccc(F)cc1 [Compound 284, (R)-N-(5-(4-fluorophenyl)-1-methyl-4-(1-methylcyclobutyl)-1H-pyrazol-3-yl)-2-(2,2,3,3-tetrafluorocyclobutyl)acetamide]
++ (“++” High Activity ≥ 0.7) | Cn1nc(NC(=O)CCC(F)(F)C(F)(F)F)c(C2CCC2)c1-c1ccc(F)cc1 [Compound 101, N-(4-cyclobutyl-5-(4-fluorophenyl)-1-methyl-1H-pyrazol-3-yl)-4,4,5,5,5-pentafluoropentanamide]
+ (“+” Moderate Activity 0.15-0.7) | Cn1nc(NC(=O)[C@H]2CC2(F)F)c(C2CCC2)c1-c1ccccc1F [Compound 161, (R)-N-(4-cyclobutyl-5-(2-fluorophenyl)-1-methyl-1H-pyrazol-3-yl)-2,2-difluorocyclopropane-1-carboxamide]
++ (“++” High Activity ≥ 0.7) | Cn1nc(NC(=O)C[C@H]2CC(F)(F)C2(F)F)c(C2CCC2)c1-c1cc(F)cc(F)c1 [Compound 266, (S)-N-(4-cyclobutyl-5-(3,5-difluorophenyl)-1-methyl-1H-pyrazol-3-yl)-2-(2,2,3,3-tetrafluorocyclobutyl)acetamide]
+ (“+” Moderate Activity 0.15-0.7) | CCOC(=O)Nc1nn(C)c(-c2ccc(F)cc2)c1C1CCC1 [Compound 75, ethyl (4-cyclobutyl-5-(4-fluorophenyl)-1-methyl-1H-pyrazol-3-yl)carbamate]
− (“−” No Activity < 0.15) | Cn1nc(NC(=O)[C@@H]2C[C@@H]2F)c(C2CCC2)c1-c1ccc(F)cc1 [Compound 253, (1S,2S)-N-(4-cyclobutyl-5-(4-fluorophenyl)-1-methyl-1H-pyrazol-3-yl)-2-fluorocyclopropane-1-carboxamide]
+ (“+” Moderate Activity 0.15-0.7) | Cn1nc(NC(=O)[C@@H]2CC2(F)F)c(C2CCC2)c1-c1ccccc1F [Compound 162, (S)-N-(4-cyclobutyl-5-(2-fluorophenyl)-1-methyl-1H-pyrazol-3-yl)-2,2-difluorocyclopropane-1-carboxamide]
